For assay [1], the target named is T1, IDO1 (Homo sapiens, UniProt P14902). Briefly: IDO1 Cellular Assay in HeLa Cells Stimulated with IFNγ. Type of assay: cell-based. The settings on record: IFNγ 100 ng/mL, 300 uM L-tryptophan, about 48 hours, fluorescence readout, read-out: IDO1 HELA Cell Assay, IC50.
The target of assay [2] is T1, IDO1. Briefly: IDO1 Human Whole Blood Assay. Type of assay: cell-based. Set-up: Human whole blood was drawn in sodium heparin coated tubes from healthy internal donors; from tissue; host or cells: human whole blood from healthy donors, stimulated with LPS and IFNγ. The settings on record: LPS and IFNγ 100 ng/mL, overnight (18 h), kynurenine by LC/MS/MS. As to the method: IDO1 Human Whole Blood Assay
Compounds to be tested were serially diluted in ten 3-fold steps in DMSO starting from 10 mM. 3 μL of compound dilutions or DMSO alone were then dispensed from the dilution plate into a polypropylene 96-well assay plate containing 97 μL of RPMI medium using an Echo 555 acoustic liquid handler (Labcyte). LPS and IFNγ was prepared in RPMI medium to a 10× of final conc. (1000 ng/mL), final concentration is 100 ng/mL.
Human whole blood was drawn in sodium heparin coated tubes from healthy internal donors. 240 μL of blood was transferred to each of the wells of a v-bottom 96 well plate. 30 μL of compound was transferred from intermediate dilution plate, and incubated for 15 min. 30 μL from stimulants was then transferred to blood and mixed thoroughly. Plate was covered with breathable membrane and incubated at 37° C. for overnight (18 h).
On day 2, isotope labeled standard solutions of kynurenine and tryptophan was made in water at 10× concentration and 30 μL was added to the blood at 3 μM final concentration. The assay plates were centrifuged at 300×G for 10 min with no brake to separate plasma from red blood cells. 60 μL of plasma samples was removed without disturbing red blood cells. Plasma was diluted with RPMI in 1:1 ratio and proteins were precipitated out with two volumes of Acetonitrile. The plates were centrifuged at 4000×G for 60 min. 20 μL of supernatant was carefully transferred to a 384 well plate containing 40 μL of 0.1% formic acid in water and analyzed by LC/MS/MS.
LC/MS/MS analyses were performed using Thermo Fisher's LX4-TSQ Quantum Ultra system. This system consists of four Agilent binary high-performance liquid chromatography (HPLC) pumps and a TSQ Quantum Ultra triple quadrupole MS/MS instrument. For each sample, 5 μL were injected onto an Atlantis T3 column (2.1 mm×150 mm, 3 μm particle size) from Waters. The mobile phase gradient pumped at 0.8 mL/min was used to elute the analytes from the column at 25 EC. The elution started at 0% B increasing linearly to 25% B at 6.5 min, holding at 25% for 1 min, re-equilibrating to 10 min. Mobile phase A consisted of 0.1% formic acid in water. Mobile phase B consisted of 0.1% of formic acid in acetonitrile. Data were acquired in positive mode using a HESI interface. The operational parameters for the TSQ Quantum Ultra instrument were a spray voltage of 4000 V, capillary temperature of 380° C., vaporizer temperature 400° C., shealth gas 60 arbitrary units, Aux gas 20 arbitrary units, tube lens 85 and collision gas 1.2 mTorr. SRM chromatograms of kynurenine (Qi: 209.2>Q3:94.0) and internal standard (Qi: 215.3>Q3:98.2) were collected for 90 sec. The peak area was integrated by Xcalibur Quan software. The ratios between the kynurenine generated in the reaction and 2D6-Kynurenine spiked-in internal standard were used to generate percentage inhibition and IC50 values. Compounds were titrated and IC50's were calculated by 4 parameter sigmoidal curve fitting formula.
The biological activity data of selective compounds using the IDO1 human whole blood assay described above are summarized in the table below.

Among the data in US12091405B2, “Substituted pyrazole compounds as indoleamine 2,3-dioxygenase inhibitors” (Merck Sharp & Dohme LLC, priority 2018, dated 2024) are IC50 values, retold here.

The structures appear in SMILES notation.

T1 sequence (P14902 whole entry): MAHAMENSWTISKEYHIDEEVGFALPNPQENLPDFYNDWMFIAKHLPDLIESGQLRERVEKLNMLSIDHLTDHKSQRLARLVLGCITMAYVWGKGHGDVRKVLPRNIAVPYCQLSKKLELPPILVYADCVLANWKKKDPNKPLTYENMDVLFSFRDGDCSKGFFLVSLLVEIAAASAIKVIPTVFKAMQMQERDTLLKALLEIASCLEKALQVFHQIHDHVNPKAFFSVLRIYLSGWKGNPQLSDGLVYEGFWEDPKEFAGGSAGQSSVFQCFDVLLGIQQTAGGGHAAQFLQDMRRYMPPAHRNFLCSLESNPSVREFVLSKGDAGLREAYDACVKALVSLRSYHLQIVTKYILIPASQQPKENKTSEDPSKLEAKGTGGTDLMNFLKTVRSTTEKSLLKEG

As to `Cc1ccccc1C1CCN(C(=O)Cn2nc(C(=O)N3C[C@@H](C)O[C@@H](C)C3)c3c2CCC3)CC1` [Example 62, 2-(3-((2S,6R)-2,6-dimethylmorpholine-4-carbonyl)-5,6-dihydrocyclopenta[c]pyrazol-1(4H)-yl)-1-(4-(o-tolyl)piperidin-1-yl)ethan-1-one], the IC50 is 9.8 nM in assay [1] and 475 nM in assay [2].

`Cc1cccc(C2CCN(C(=O)Cn3nc(C(=O)N4CC[C@@H](O)[C@@H](F)C4)c4c3C[C@H]3C[C@@H]43)CC2)c1C` [Example 25, 1-[4-(2,3-dimethylphenyl)piperidin-1-yl]-2-{(3bR,4aR)-3-[(3S,4R)-3-fluoro-4-hydroxypiperidine-1-carbonyl]-3b,4,4a,5-tetrahydro-1H-cyclopropa[3,4]cyclopenta[1,2-c]pyrazol-1-yl}ethan-1-one]: the IC50 in assay [1] worked out at 1.6 nM; in assay [2], 192 nM.

For `Cc1cccc(C2CCN(C(=O)Cn3nc(C(=O)N4CC[C@H](O)[C@@H](C)C4)c4c3C[C@H]3C[C@@H]43)CC2)c1C` [Example 21, 1-[4-(2,3-dimethylphenyl)piperidin-1-yl]-2-{(3bR,4aR)-3-[(3S,4S)-4-hydroxy-3-methylpiperidine-1-carbonyl]-3b,4,4a,5-tetrahydro-1H-cyclopropa[3,4]cyclopenta[1,2-c]pyrazol-1-yl}ethan-1-one], the values for the IC50 in assay [1] and in assay [2] were 0.9 nM and 328 nM, respectively.

With `Cc1cccc(C2(F)CCN(C(=O)Cn3nc(C(=O)N4C[C@@H](C)O[C@@H](C)C4)c4c3CCC4)CC2)c1C` [Example 7, 2-(3-((2R,6S)-2,6-dimethylmorpholine-4-carbonyl)-5,6-dihydrocyclopenta[c]pyrazol-1(4H)-yl)-1-(4-(2,3-dimethylphenyl)-4-fluoropiperidin-1-yl)ethanone], the IC50 in assay [1] worked out at 3.2 nM; in assay [2], 1210 nM.

Turning to `Cc1cccc(C2CCN(C(=O)Cn3nc(C(=O)N4CC[C@@H](O)[C@H](C)C4)c4c3C[C@H]3C[C@@H]43)CC2)c1C` [Example 19, 1-[4-(2,3-dimethylphenyl)piperidin-1-yl]-2-{(3bR,4aR)-3-[(3R,4R)-4-hydroxy-3-methylpiperidine-1-carbonyl]-3b,4,4a,5-tetrahydro-1H-cyclopropa[3,4]cyclopenta[1,2-c]pyrazol-1-yl}ethan-1-one], the IC50 was found to be 0.9 nM in assay [1] and 219 nM in assay [2].

Take `Cc1cccc(C2CCN(C(=O)Cn3nc(C(=O)N4CCC(O)CC4)c4c3CCC4)CC2(F)F)c1C` (single isomer, unassigned) [Example 14, 1-(4-(2,3-dimethylphenyl)-3,3-difluoropiperidin-1-yl)-2-(3-(4-hydroxypiperidine-1-carbonyl)-5,6-dihydrocyclopenta[c]pyrazol-1(4H)-yl)ethanone]: the values for the IC50 in assay [1] and in assay [2] were 3.4 nM and 1390 nM, respectively.

Turning to `Cc1cccc(C2CCN(C(=O)Cn3nc(C(=O)N4CCO[C@H](CO)C4)c4c3CCC4)CC2)c1C` [Example 43, (S)-1-(4-(2,3-dimethylphenyl)piperidin-1-yl)-2-(3-(2-(hydroxymethyl)morpholine-4-carbonyl)-5,6-dihydrocyclopenta[c]pyrazol-1(4H)-yl) ethanone], the IC50 in assay [1] amounted to 5.5 nM; in assay [2], 192 nM.

`Cc1c(C2CCN(C(=O)Cn3nc(C(=O)N4C[C@@H](C)O[C@@H](C)C4)c4c3CCC4)CC2)cccc1C(F)(F)F` [Example 83, 2-{3-[(2R,6S)-2,6-dimethylmorpholine-4-carbonyl]-5,6-dihydrocyclopenta[c]pyrazol-1(4H)-yl}-1-{4-[2-methyl-3-(trifluoromethyl)phenyl]piperidin-1-yl}ethan-1-one]: the concentration for half-maximal inhibition (IC50) in assay [1] came out at 4.2 nM; in assay [2], 1850 nM.

`Cc1cccc(C2CCN(C(=O)Cn3nc(C(=O)N4CC[C@@H](O)[C@@H](C)C4)c4c3C[C@H]3C[C@@H]43)CC2)c1C` [Example 22, 1-[4-(2,3-dimethylphenyl)piperidin-1-yl]-2-{(3bR,4aR)-3-[(3S,4R)-4-hydroxy-3-methylpiperidine-1-carbonyl]-3b,4,4a,5-tetrahydro-1H-cyclopropa[3,4]cyclopenta[1,2-c]pyrazol-1-yl}ethan-1-one]: the IC50 in assay [1] is 1.1 nM; in assay [2] it was 69.1 nM.

Regarding `Cc1cccc(C2CCN(C(=O)Cn3nc(C(=O)N4CCC(O)(CF)CC4)c4c3CCCC4)CC2)c1C` [Example 36, 1-(4-(2,3-dimethylphenyl)piperidin-1-yl)-2-(3-(4-(fluoromethyl)-4-hydroxypiperidine-1-carbonyl)-4,5,6,7-tetrahydro-1H-indazol-1-yl) ethanone], the IC50 in assay [1] amounted to 1.6 nM; in assay [2], 50.8 nM.

On to `Cc1cccc(C2CCN(C(=O)Cn3nc(C(=O)N4CC[C@H](O)[C@@H](F)C4)c4c3CCC4)CC2)c1C` [Example 37, 1-(4-(2,3-dimethylphenyl)piperidin-1-yl)-2-(3-((3S,4S)-3-fluoro-4-hydroxypiperidine-1-carbonyl)-5,6-dihydrocyclopenta[c]pyrazol-1(4H)-yl)ethanone], for which the values for the IC50 in assay [1] and in assay [2] were 1.8 nM and 84.9 nM, respectively.

As to `Cc1cccc(C2CCN(C(=O)Cn3nc(C(=O)N4CC[C@H](O)[C@@H](F)C4)c4c3CCCC4)CC2)c1C` [Example 32, 1-(4-(2,3-dimethylphenyl)piperidin-1-yl)-2-(3-((3S,4S)-3-fluoro-4-hydroxypiperidine-1-carbonyl)-4,5,6,7-tetrahydro-1H-indazol-1-yl) ethanone], the IC50 in assay [1] was 0.8 nM; in assay [2] it was 83.7 nM.

`Cc1c(F)cccc1C1CCN(C(=O)Cn2nc(C(=O)N3C[C@@H](C)O[C@@H](C)C3)c3c2CCC3)CC1` [Example 173, 2-{3-[(2R,6S)-2,6-dimethylmorpholine-4-carbonyl]-5,6-dihydrocyclopenta[c]pyrazol-1(4H)-yl}-1-[4-(3-fluoro-2-methylphenyl)piperidin-1-yl]ethan-1-one]: the IC50 in assay [1] is 6.4 nM; in assay [2], 269 nM.

For `Cc1cccc(C2CCN(C(=O)Cn3nc(C(=O)N4CC[C@H](O)[C@H](F)C4)c4c3CCC4)CC2)c1C` (single isomer, unassigned) [Example 61, 1-(4-(2,3-dimethylphenyl)piperidin-1-yl)-2-(3-((3R,4S or 3S, 4R)-3-fluoro-4-hydroxypiperidine-1-carbonyl)-5,6-dihydrocyclopenta[c]pyrazol-1(4H)-yl)ethanone], the half-inhibitory concentration (IC50) in assay [1] came out at 3.7 nM; in assay [2], 545 nM.

For the molecule `Cc1cccc(C2(F)CCN(C(=O)Cn3nc(C(=O)N4CCC(O)CC4)c4c3CCC4)CC2)c1C` [Example 9, 1-(4-(2,3-dimethylphenyl)-4-fluoropiperidin-1-yl)-2-(3-(4-hydroxypiperidine-1-carbonyl)-5,6-dihydrocyclopenta[c]pyrazol-1(4H)-yl)ethanone], the IC50 in assay [1] stood at 11.1 nM; in assay [2], 3370 nM.

Consider `Cc1cccc(C2CCN(C(=O)Cn3nc(C(=O)N4CC[C@H](O)[C@H](F)C4)c4c3C[C@H]3C[C@@H]43)CC2)c1C` [Example 26, 1-[4-(2,3-dimethylphenyl)piperidin-1-yl]-2-{(3bR,4aR)-3-[(3R,4S)-3-fluoro-4-hydroxypiperidine-1-carbonyl]-3b,4,4a,5-tetrahydro-1H-cyclopropa[3,4]cyclopenta[1,2-c]pyrazol-1-yl}ethan-1-one], for which the values for the IC50 in assay [1] and in assay [2] were 1.8 nM and 258 nM, respectively.

As for `Cc1cccc(C2CCN(C(=O)Cn3nc(C(=O)N4CC[C@@H](O)[C@@H](F)C4)c4c3CCC4)CC2)c1C` [Example 60, 1-(4-(2,3-dimethylphenyl)piperidin-1-yl)-2-(3-((3S,4R)-3-fluoro-4-hydroxypiperidine-1-carbonyl)-5,6-dihydrocyclopenta[c]pyrazol-1(4H)-yl)ethanone], the IC50 in assay [1] came out at 3.5 nM; in assay [2], 488 nM.

A word on the IC50: it is the concentration that gives 50% inhibition.
